Consider one compound from patent US20100184673A1, “USE OF PARATHYROID HORMONE ( 1-34 ) AS ANTI-HIV AGENT” (priority 2007, published 2010).

The assay relates to drug-resistant Mycobacterium tuberculosis. Particulars: peptide 10 micrograms per ml, seven days.

The % inhibition is the relative decrease from the control value, in per cent. Low values mean little suppression, high ones strong suppression.

`CC[C@H](C)[C@H](NC(=O)[C@H](CCC(=O)O)NC(=O)[C@H](CO)NC(=O)[C@@H](NC(=O)[C@@H](N)CO)C(C)C)C(=O)N[C@@H](CCC(N)=O)C(=O)N[C@@H](CC(C)C)C(=O)N[C@@H](CCSC)C(=O)N[C@@H](Cc1cnc[nH]1)C(=O)N[C@@H](CC(N)=O)C(=O)N[C@@H](CC(C)C)C(=O)NCC(=O)N[C@@H](CCCCN)C(=O)N[C@@H](Cc1cnc[nH]1)C(=O)N[C@@H](CC(C)C)C(=O)N[C@@H](CC(N)=O)C(=O)N[C@@H](CO)C(=O)N[C@@H](CCSC)C(=O)N[C@@H](CCC(=O)O)C(=O)N[C@@H](CCCN=C(N)N)C(=O)N[C@H](C(=O)N[C@@H](CCC(=O)O)C(=O)N[C@@H](Cc1c[nH]c2ccccc12)C(=O)N[C@@H](CC(C)C)C(=O)N[C@@H](CCCN=C(N)N)C(=O)N[C@@H](CCCCN)C(=O)N[C@@H](CCCCN)C(=O)N[C@@H](CC(C)C)C(=O)N[C@@H](CCC(N)=O)C(=O)N[C@@H](CC(=O)O)C(=O)N[C@H](C(=O)N[C@@H](Cc1cnc[nH]1)C(=O)N[C@@H](CC(N)=O)C(=O)N[C@@H](Cc1ccccc1)C(=O)O)C(C)C)C(C)C` [pTH (1-34)]: the “% inhibition” value was 0.0%.
